Measurements reported in US8372847B2, “Pyrazinone modulator of corticotropin-releasing factor receptor activity” (Bristol-Myers Squibb Company, priority 2008, dated 2013).

How the values were obtained:
human CRF1 receptors = molecular target: T1, human CRF1 receptors (Homo sapiens, UniProt P34998); experiment: hCRF1 binding assay, 125I-o-CRF competition, Y79 cell membranes; conditions: native human CRF1 receptors, Y79 retinoblastoma cells; n=3; read-out: IC50, inhibition of 125I-o-CRF binding to Y79 membrane
T1 construct: the native CRF1 receptors present on the human retinoblastoma cell line Y79; endogenous in cells; host or cells: Y79 human retinoblastoma cells
T1 sequence (P34998 24-415): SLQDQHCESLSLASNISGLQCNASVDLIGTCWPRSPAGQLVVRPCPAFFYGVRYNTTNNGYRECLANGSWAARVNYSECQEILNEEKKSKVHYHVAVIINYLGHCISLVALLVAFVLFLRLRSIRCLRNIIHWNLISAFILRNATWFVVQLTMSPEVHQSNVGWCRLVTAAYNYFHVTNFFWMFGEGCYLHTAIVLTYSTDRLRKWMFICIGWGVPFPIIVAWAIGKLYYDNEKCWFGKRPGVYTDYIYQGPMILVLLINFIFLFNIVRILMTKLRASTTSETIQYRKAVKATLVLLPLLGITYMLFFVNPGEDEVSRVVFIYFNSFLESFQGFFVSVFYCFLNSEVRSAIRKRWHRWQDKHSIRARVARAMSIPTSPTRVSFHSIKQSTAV
Method: hCRF1 Binding Assay. Membranes were prepared for binding using Y79 cells, a human retinoblastoma line that natively expresses human CRF1 receptors [Hauger, R., et al., Journal of Neurochemistry 68: 2308-2316, (1997)]. Briefly, cells were grown and collected then the pellet homogenized in assay buffer containing 50 mM Hepes (pH 7.0 at 23° C.), 10 mM MgCl2, 2 mM EGTA, 1 μg/ml aprotinin, 1 μg/ml leupeptin, 1 μg/ml pepstatin A, 0.005% Triton X-100, 10 U/ml bacitracin and 0.1% ovalbumin. The suspension was centrifuged at 32000×g for 30 minutes. The resulting supernatant was discarded and the pellet resuspended by homogenization in assay buffer and centrifuged again. The supernatant was discarded and the pellet resuspended by homogenization in assay buffer and aliquots frozen at −70° C. On the day of the experiment aliquots were thawed quickly and 25 μg/well added to 150 pM ^125I-ovine-CRF and drugs in a total volume of 100 μl assay buffer. The assay mixture was incubated for 2 hr at 21° C. Bound and free radioligand were then separated by rapid filtration using glass fiber filters (Whatman GF/B, pretreated with 0.3% PEI) on a Brandel Cell Harvester. […] Filters were then counted in a Wallac Wizard gamma counter. IC50 values were determined in a five point (five drug concentrations) competition assay using non-linear regression by Microsoft Excel-fit. […]

Male Sprague-Dawley rats = conditions: previous CRF1 antagonists, literature (McElroy 2002; Lelas 2004); cited from earlier work
CRF2 receptor = molecular target: T2, CRF2 receptor (Sus scrofa, UniProt B8Q4Z9); experiment: CRF2 binding assay, 125I-sauvagine competition, porcine choroid plexus membrane; conditions: n=3; read-out: IC50 at CRF2 receptors of porcine choroid plexus membrane
T2 construct: the CRF2 receptors endogenously expressed on the porcine choroid plexus membrane; from tissue; host or cells: porcine choroid plexus
Method: CRF2 Binding Assay. Frozen porcine choroid plexus was thawed rapidly in assay buffer containing 50 mM Hopes (pH 7.0 at 23° C.), 10 mM MgCl2, 2 mM EGTA, 1 μg/ml aprotinin, 1 μg/ml leupeptin, 1 μg/ml pepstatin A, 0.005% Triton X-100, 10 U/ml bacitracin and 0.1% ovalbumin and homogenized. The suspension was centrifuged at 32000×g for 30 minutes. The resulting supernatant was discarded and the pellet resuspended by homogenization in assay buffer and centrifuged again. The supernatant was discarded and the pellet resuspended by homogenization in assay buffer and frozen at −70° C. On the day of the experiment aliquots of the homogenate were thawed quickly and 10 μg/well added to 100 pM ^125I-sauvagine and drugs in a total volume of 100 μl assay buffer. The assay mixture was incubated for 2 hr at 21° C. Bound and free radioligand were then separated by rapid filtration using glass fiber filters (Whatman GF/B, pretreated with 0.3% PEI) on a Brandel Cell Harvester. Filters were then washed multiple times with ice cold wash buffer (PBS w/o Ca^2+ and Mg^2+, 0.01% Triton X-100 (pH 7.0 at 23° C.)). Non-specific binding was defined using 1 μM α-helical CRF (9-41). Filters were then counted in a Wallac Wizard gamma counter. IC50 values were determined in a five point (five drug concentrations) competition assay using non-linear regression by Microsoft Excel-fit.
Binding Results. […]

T2 sequence (B8Q4Z9 1-411): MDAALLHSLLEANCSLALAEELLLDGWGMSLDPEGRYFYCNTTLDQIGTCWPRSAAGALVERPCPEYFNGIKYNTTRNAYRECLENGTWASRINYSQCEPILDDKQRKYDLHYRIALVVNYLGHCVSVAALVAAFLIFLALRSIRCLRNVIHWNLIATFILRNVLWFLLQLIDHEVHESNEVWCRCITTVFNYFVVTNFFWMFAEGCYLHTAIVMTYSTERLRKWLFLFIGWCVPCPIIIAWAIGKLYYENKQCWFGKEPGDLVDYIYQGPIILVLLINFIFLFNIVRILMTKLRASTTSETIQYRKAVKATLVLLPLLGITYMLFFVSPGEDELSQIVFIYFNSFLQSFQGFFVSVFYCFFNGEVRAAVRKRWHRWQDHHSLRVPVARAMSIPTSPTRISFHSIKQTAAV

IC50 (human CRF1 receptors) [nM] | IC50 (CRF2 receptor) [nM] | SMILES | effectiveness in the situational anxiety model (Male Sprague-Dawley rats)
1.71 ± 0.53 | – | COCC(COC)Nc1nc(C)nc2c(-c3ccc(Cl)cc3Cl)c(C)nn12 [DMP696] | effective
1.81 ± 0.46 | > 10000 | COC[C@H](C1CC1)n1cc(C#N)nc(Nc2cc(C)c(OC(F)F)nc2C)c1=O [(S)-4-(1-cyclopropyl-2-methoxyethyl)-6-(6-(difluoromethoxy)-2,5-dimethylpyridin-3-ylamino)-5-oxo-4,5-dihydropyrazine-2-carbonitrile] | –
